Tests used:
human VEGFR2 kinase = molecular target: T1, human VEGFR2 kinase (Homo sapiens, UniProt P35968); experiment: VEGFR2 kinase assay (HTRF); type: biochemical; settings: Table 1
T1 construct: GST-fusion protein encoding the catalytic carboxyl-terminus of human VEGFR kinase 1, 2, or 3; made in house; host or cells: baculovirus expression system
Procedure: Vascular endothelial growth factor receptor kinase assays were carried out in a homogenous time-resolved fluorescence (HTRF) format in 384-well microtitre plates using a purified, baculovirus-expressed GST-fusion protein encoding the catalytic carboxyl-terminus of human VEGFR kinase 1, 2, or 3. Reactions were initiated by the addition of 10 μl of activated VEGFR kinase (1 nM, 0.1 M HEPES pH 7.5, 0.1 mg ml^−1 BSA, and 0.30 mM DTT) to 10 μl of substrate (360 nM biotin-aminohexyl-EEEEYFELVAKKKK-NH2 peptide, 75 μM ATP, 10 mM MgCl2) and 1 μl of small molecule inhibitor at various concentrations. Plates were incubated at room temperature for 60 min, and the reaction was stopped by the addition of 20 μl 100 mM EDTA. Homogenous time-resolved fluorescence reagents (20 μl 15 nM streptavidin-linked allophycocyanin, 1 nM europium-labelled anti-phosphotyrosine antibody in 0.1 M HEPES, pH 7.5, 0.1 mg ml^−1 BSA) were added and plates were incubated for a minimum of 10 min. The fluorescence at 665 nm was measured with a Victor plate reader (Wallac, Shelton, CT, USA) using a time delay of 50 μs. […] Data were fitted with a curve described by: y=((Vmax × x)/(K+x)+Y2), where Vmax is the upper asymptote, Y2 is the Y intercept, and K is the IC50.

[1] = test system: HUVEC grown in presence of VEGF; experiment: VEGF-induced HUVEC proliferation (BrdU incorporation); type: cell-based; settings: Homo sapiens, VEGF 10 ng ml^−1, 72 h
Procedure: (§1) Effect of kinase inhibitors on cell proliferation was measured using BrdU incorporation method using commercially available kits (Roche Diagnostics, Indianapolis, IN, USA). Briefly, HUVEC were seeded in a medium containing 5% FBS in type 1 Collagen-coated 96-well plates and incubated overnight at 37°C, 5% CO2. The medium was aspirated from the cells, and various concentrations of kinase inhibitors in serum-free medium were added to each well. After 30 min, VEGF (10 ng ml^−1) or bFGF (0.3 ng ml^−1) was added to the wells. Cells were incubated for an additional 72 h and BrdU (10 μM) was added during the last 18–24 h of incubation. Data were fitted with a curve described by the equation, y=Vmax × (1−(x/(K+x))), where K is equal to the IC50.

[2] = test system: HUVEC grown in presence of bFGF; experiment: bFGF-induced HUVEC proliferation (BrdU incorporation); type: cell-based; settings: Homo sapiens, bFGF 0.3 ng ml^−1, 72 h
Procedure: as §1

T1 sequence (P35968 834-1162 limits assumed): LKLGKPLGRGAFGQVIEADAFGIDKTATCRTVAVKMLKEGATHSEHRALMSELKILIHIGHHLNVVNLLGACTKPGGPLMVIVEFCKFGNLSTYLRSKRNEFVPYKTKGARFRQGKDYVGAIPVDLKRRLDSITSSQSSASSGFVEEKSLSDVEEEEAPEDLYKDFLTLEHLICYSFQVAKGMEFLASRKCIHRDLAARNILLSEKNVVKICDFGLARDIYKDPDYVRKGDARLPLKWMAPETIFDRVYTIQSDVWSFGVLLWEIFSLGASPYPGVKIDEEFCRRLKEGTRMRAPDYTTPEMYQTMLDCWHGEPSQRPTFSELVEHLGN

- IC50 (human VEGFR2 kinase): 8 nM
SMILES: COc1cc(Nc2nccc(Nc3ccc4c(C)n[nH]c4c3)n2)cc(OC)c1OC [GW612286, N^4-(3-methyl-1H-indazol-6-yl)-N^2-(3,4,5-trimethoxyphenyl)pyrimidine-2,4-diamine]
- IC50 [1]: 180 nM
- IC50 [2]: 3630 nM

— paper PMC2409895, “Antitumour efficacy of VEGFR2 tyrosine kinase inhibitor correlates with expression of VEGF and its receptor VEGFR2 in tumour models” (British Journal of Cancer, 2004)
